How the values were obtained:
[1] = target: human MLKL (full length) (Homo sapiens (Human), UniProt Q8NB16); assay: KINOMEscan binding assay, human MLKL (full length); conditions: hMLKL, Table 25; read-out: MLKL (KD)
Procedure, shortened: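 Compound dilutions (11 points, 3-fold, mostly from 30,000 nM, 1% DMSO final) competed with immobilized ligand for DNA- or phage-tagged protein, and bead-bound protein was measured by qPCR. Kd values came from Hill-equation fits with slope −1 (Levenberg-Marquardt).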

[2] = tested on: Immortalised Mouse Dermal Fibroblasts (MDFs); assay: Cellular assay: inhibition of TSI induced necroptosis, CellTitre-Glo viability; conditions: Mus musculus, Fibroblast; MDF, 3 hours TSI cocktail, Table 27; read-out: Inhibition of TSI-induced necroptosis (IC50 cell-based assay) in MDF
Procedure, shortened: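 Immortalised mouse dermal fibroblasts (2200 cells/well) pretreated 30 min with compound, 10-point 1:3 series from 36 μM, 0.3% DMSO. Then 3 h at 37° C. with TNF (100 ng/ml), Smac mimetic (500 nM) and IDN-6556 (10 μM). CellTiter-Glo luminescence normalised to DMSO (100%) and DMSO+TSI (0%); IC50 from 4-parameter logistic fit.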

[3] = target: endogenous MLKL in MDF (Mus musculus (Mouse), UniProt Q9D2Y4); assay: Degradation assay: endogenous MLKL in MDF (western blot); conditions: MDF cells, 24 h incubation with compound, MLKL adjusted for loading with GAPDH, normalized to DMSO only control, read-out: Degradation of endogenous MLKL in MDF (DC50 cell-based assay)
Procedure, shortened: (§1)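 MDF (seeded the day before) or U937 cells were treated 24 h at 37 °C, 10% CO2 with compound at 10, 2, 0.4, 0.08 and 0.016 μM final. Endogenous MLKL was quantified by western blot (anti-MLKL 3H1), normalized to GAPDH. Percent degradation was taken relative to DMSO control.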

[4] = target: endogenous MLKL in U937 (Homo sapiens (Human), UniProt Q8NB16); assay: Degradation assay: endogenous MLKL in U937 (western blot); conditions: U937, 24 h incubation, read-out: Degradation of endogenous MLKL in U937 (DC50 cell-based assay)
Procedure, shortened: as §1

human MLKL (full length), sequence (Q8NB16 whole entry): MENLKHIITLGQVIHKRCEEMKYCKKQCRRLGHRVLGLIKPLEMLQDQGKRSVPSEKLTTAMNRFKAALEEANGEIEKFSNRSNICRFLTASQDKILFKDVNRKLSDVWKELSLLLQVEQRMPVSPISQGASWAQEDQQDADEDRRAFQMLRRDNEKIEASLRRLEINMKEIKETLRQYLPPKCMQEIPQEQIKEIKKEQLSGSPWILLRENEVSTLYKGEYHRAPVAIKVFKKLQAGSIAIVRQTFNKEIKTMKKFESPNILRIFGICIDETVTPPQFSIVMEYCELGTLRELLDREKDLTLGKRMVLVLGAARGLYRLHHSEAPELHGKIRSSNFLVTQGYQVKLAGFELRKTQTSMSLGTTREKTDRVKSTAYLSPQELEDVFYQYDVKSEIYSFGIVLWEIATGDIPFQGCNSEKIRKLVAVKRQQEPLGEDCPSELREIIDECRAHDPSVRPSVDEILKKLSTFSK
endogenous MLKL in U937, sequence (Q8NB16 whole entry): as above
endogenous MLKL in MDF, sequence (Q9D2Y4 whole entry): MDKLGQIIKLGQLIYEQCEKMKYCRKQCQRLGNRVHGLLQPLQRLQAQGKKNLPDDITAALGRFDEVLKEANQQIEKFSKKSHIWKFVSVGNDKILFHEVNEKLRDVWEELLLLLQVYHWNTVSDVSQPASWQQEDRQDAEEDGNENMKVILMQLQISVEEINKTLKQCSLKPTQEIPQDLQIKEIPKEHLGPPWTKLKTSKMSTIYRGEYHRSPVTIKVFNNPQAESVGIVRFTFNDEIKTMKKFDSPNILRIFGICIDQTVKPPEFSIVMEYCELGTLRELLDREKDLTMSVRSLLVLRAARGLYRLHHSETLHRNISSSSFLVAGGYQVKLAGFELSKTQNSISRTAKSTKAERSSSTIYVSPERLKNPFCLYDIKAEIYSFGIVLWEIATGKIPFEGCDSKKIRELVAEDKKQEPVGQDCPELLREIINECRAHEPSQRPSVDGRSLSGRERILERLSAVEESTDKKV

Compound	Kd [1] [nM]	IC50 [2] [nM]	DC50 [3] [nM]	DC50 [4] [nM]
C[C@H](Oc1cc(-c2nn(C)c3c(-c4cnn(C5CCN(C(=O)[C@H]6CC[C@H](Nc7cccc8c7C(=O)N(C7CCC(=O)NC7=O)C8=O)CC6)CC5)c4)cnc(N)c23)ccc1NS(=O)(=O)C(F)F)c1ccc(F)cc1 (stereo partly drawn) [Compound 1058, N-{4-[4-amino-1-methyl-7-(1-{1-[(trans)-4-{[2-(2,6-dioxopiperidin-3-yl)-1,3-dioxo-2,3-dihydro-1H-isoindol-4-yl]amino}cyclohexane-carbonyl]piperidin-4-yl}-1H-pyrazol-4-yl)-1H-pyrazolo[4,3-c]pyridin-3-yl]-2-[(1S)-1-(4-fluorophenyl)ethoxy]phenyl}-1,1-difluoromethanesulfonamide]	10 to 1000	< 1000	< 1000	1000 to 10000
Cc1ncsc1-c1ccc(CNC(=O)[C@@H]2C[C@@H](O)CN2C(=O)[C@@H](NC(=O)C2(F)CC2)C(C)(C)C)c(OCCCCCn2cc(-c3cnc(N)c4c(-c5ccc(NS(=O)(=O)C(F)F)c(O[C@@H](C)c6ccc(F)cc6)c5)nn(C)c34)cn2)c1 [Compound 1068, (2S,4R)-N-[(2-{[5-(4-{4-amino-3-[4-(difluoromethanesulfonamido)-3-[(1S)-1-(4-fluorophenyl)ethoxy]phenyl]-1-methyl-1H-pyrazolo[4,3-c]pyridin-7-yl}-1H-pyrazol-1-yl)pentyl]oxy}-4-(4-methyl-1,3-thiazol-5-yl)phenyl)methyl]-1-[(2S)-2-[(1-fluorocyclopropyl)formamido]-3,3-dimethylbutanoyl]-4-hydroxypyrrolidine-2-carboxamide]	10 to 1000	1000 to 10000	< 1000	1000 to 10000
C[C@H](Oc1cc(-c2nn(C)c3c(-c4cnn(C5CCN(C(=O)C6CC7(CCN(c8cccc9c8C(=O)N(C8CCC(=O)NC8=O)C9=O)CC7)C6)CC5)c4)cnc(N)c23)ccc1NS(=O)(=O)C(F)F)c1ccc(F)cc1 (stereo partly drawn) [Compound 1069, N-(4-{4-amino-7-[1-(1-{7-[2-(2,6-dioxopiperidin-3-yl)-1,3-dioxo-2,3-dihydro-1H-isoindol-4-yl]-7-azaspiro[3.5]nonane-2-carbonyl}piperidin-4-yl)-1H-pyrazol-4-yl]-1-methyl-1H-pyrazolo[4,3-c]pyridin-3-yl}-2-[(1S)-1-(4-fluorophenyl)ethoxy]phenyl)-1,1-difluoromethanesulfonamide]	10 to 1000	< 1000	< 1000	< 1000
C[C@H](Oc1cc(-c2nn(C)c3c(-c4cnn(C5CCN(C(=O)COC6CCN(c7cccc8c7C(=O)N(C7CCC(=O)NC7=O)C8=O)CC6)CC5)c4)cnc(N)c23)ccc1NS(=O)(=O)C(F)F)c1ccc(F)cc1 (stereo partly drawn) [Compound 1072, N-{4-[4-amino-7-(1-{1-[2-({1-[2-(2,6-dioxopiperidin-3-yl)-1,3-dioxo-2,3-dihydro-1H-isoindol-4-yl]piperidin-4-yl}oxy)acetyl]piperidin-4-yl}-1H-pyrazol-4-yl)-1-methyl-1H-pyrazolo[4,3-c]pyridin-3-yl]-2-[(1S)-1-(4-fluorophenyl)ethoxy]phenyl}-1,1-difluoromethane-sulfonamide]	< 10	1000 to 10000	< 1000	< 1000
C[C@H](Oc1cc(-c2nn(C)c3c(-c4cnn(C5CCN(C(=O)CC6CCCN(c7cccc8c7C(=O)N(C7CCC(=O)NC7=O)C8=O)C6)CC5)c4)cnc(N)c23)ccc1NS(=O)(=O)C(F)F)c1ccc(F)cc1 (stereo partly drawn) [Compound 1073, N-[4-(4-amino-7-{1-[1-(2-{1-[1,3-dioxo-2-(2-oxo-piperidin-3-2,3-yl)-dihydro-1H-isoindol-4-yl]piperidin-3-yl}acetyl)piperidin-4-yl]-1H-pyrazol-4-yl}-1-methyl-1H-pyrazolo[4,3-c]pyridin-3-yl)-2-[(1S)-1-(4-fluorophenyl)ethoxy]phenyl]-1,1-difluoromethanesulfonamide]	10 to 1000	< 1000	< 1000	< 1000
C[C@H](Oc1cc(-c2nn(C)c3c(-c4cnn(C5CCN(C(=O)C6CC7(C6)CN(c6cccc8c6C(=O)N(C6CCC(=O)NC6=O)C8=O)C7)CC5)c4)cnc(N)c23)ccc1NS(=O)(=O)C(F)F)c1ccc(F)cc1 (stereo partly drawn) [Compound 1074, N-(4-{4-amino-7-[1-(1-{2-[2-(2,6-dioxopiperidin-3-yl)-1,3-dioxo-2,3-dihydro-1H-isoindol-4-yl]-2-azaspiro[3.3]heptane-6-carbonyl}piperidin-4-yl)-1H-pyrazol-4-yl]-1-methyl-1H-pyrazolo[4,3-c]pyridin-3-yl}-2-[(1S)-1-(4-fluorophenyl)ethoxy]phenyl)-1,1-difluoromethanesulfonamide]	10 to 1000	< 1000	< 1000	< 1000
C[C@H](Oc1cc(-c2nn(C)c3c(-c4cnn(C5CCN(CCC6CCN(c7cccc8c7C(=O)N(C7CCC(=O)NC7=O)C8=O)CC6)CC5)c4)cnc(N)c23)ccc1NS(=O)(=O)C(F)F)c1ccc(F)cc1 (stereo partly drawn) [Compound 1076, N-[4-(4-amino-7-{1-[1-(2-{1-[2-(2,6-dioxopiperidin-3-yl)-1,3-dioxo-2,3-dihydro-1H-isoindol-4-yl]piperidin-4-yl}ethyl)piperidin-4-yl]-1H-pyrazol-4-yl}-1-methyl-1H-pyrazolo[4,3-c]pyridin-3-yl)-2-[(1S)-1-(4-fluorophenyl)ethoxy]phenyl]-1,1-difluoromethane-sulfonamide]	< 10	< 1000	1000 to 10000	< 1000
C[C@H](Oc1cc(-c2nn(C)c3c(-c4cnn(C5CCN(CCCC6CCN(c7cccc8c7C(=O)N(C7CCC(=O)NC7=O)C8=O)CC6)CC5)c4)cnc(N)c23)ccc1NS(=O)(=O)C(F)F)c1ccc(F)cc1 (stereo partly drawn) [Compound 1078, N-[4-(4-amino-7-{1-[1-(3-{1-[2-(2,6-dioxopiperidin-3-yl)-1,3-dioxo-2,3-dihydro-1H-isoindol-4-yl]piperidin-4-yl}propyl)piperidin-4-yl]-1H-pyrazol-4-yl}-1-methyl-1H-pyrazolo[4,3-c]pyridin-3-yl)-2-[(1S)-1-(4-fluorophenyl)ethoxy]phenyl]-1,1-difluoromethane-sulfonamide]	< 10	< 1000	1000 to 10000	1000 to 10000
C[C@H](Oc1cc(-c2nn(C)c3c(-c4cnn(C5CCN(CC6CCN(c7cccc8c7C(=O)N(C7CCC(=O)NC7=O)C8=O)CC6)CC5)c4)cnc(N)c23)ccc1NS(=O)(=O)C(F)F)c1ccc(F)cc1 (stereo partly drawn) [Compound 1079, N-[4-(4-amino-7-{1-[1-({1-[2-(2,6-dioxopiperidin-3-yl)-1,3-dioxo-2,3-dihydro-1H-isoindol-4-yl]piperidin-4-yl}methyl)piperidin-4-yl]-1H-pyrazol-4-yl}-1-methyl-1H-pyrazolo[4,3-c]pyridin-3-yl)-2-[(1S)-1-(4-fluorophenyl)ethoxy]phenyl]-1,1-difluoromethane-sulfonamide]	< 10	< 1000	< 1000	< 1000
C[C@H](Oc1cc(-c2nn(C)c3c(-c4cnn(C5CCN(C(=O)CC6CN(c7cccc8c7C(=O)N(C7CCC(=O)NC7=O)C8=O)CCO6)CC5)c4)cnc(N)c23)ccc1NS(=O)(=O)C(F)F)c1ccc(F)cc1 (stereo partly drawn) [Compound 1081, N-[4-(4-amino-7-{1-[1-(2-{4-[2-(2,6-dioxopiperidin-3-yl)-1,3-dioxo-2,3-dihydro-1H-isoindol-4-yl]morpholin-2-yl}acetyl)piperidin-4-yl]-1H-pyrazol-4-yl}-1-methyl-1H-pyrazolo[4,3-c]pyridin-3-yl)-2-[(1S)-1-(4-fluorophenyl)ethoxy]phenyl]-1,1-difluoromethanesulfonamide]	< 10	< 1000	< 1000	< 1000
C[C@H](Oc1cc(-c2nn(C)c3c(-c4cnn(C5CCN(C(=O)COc6cccc7c6C(=O)N(C6CCC(=O)NC6=O)C7=O)CC5)c4)cnc(N)c23)ccc1NS(=O)(=O)C(F)F)c1ccc(F)cc1 (stereo partly drawn) [Compound 1082, N-[4-(4-amino-7-{1-[1-(2-{[2-(2,6-dioxopiperidin-3-yl)-1,3-dioxo-2,3-dihydro-1H-isoindol-4-yl]oxy}acetyl)piperidin-4-yl]-1H-pyrazol-4-yl}-1-methyl-1H-pyrazolo[4,3-c]pyridin-3-yl)-^2-[(1S)-1-(4-fluorophenyl)ethoxy]phenyl]-1,1-difluoromethanesulfonamide]	< 10	1000 to 10000	1000 to 10000	< 1000
C[C@H](Oc1cc(-c2nn(C)c3c(-c4cnn(C5CCN(CC6CCN(c7cccc8c7C(=O)N(C7CCC(=O)NC7=O)C8=O)C6)CC5)c4)cnc(N)c23)ccc1NS(=O)(=O)C(F)F)c1ccc(F)cc1 (stereo partly drawn) [Compound 1083, N-[4-(4-amino-7-{1-[1-({1-[2-(2,6-dioxopiperidin-3-yl)-1,3-dioxo-2,3-dihydro-1H-isoindol-4-yl]pyrrolidin-3-yl}methyl)piperidin-4-yl]-1H-pyrazol-4-yl}-1-methyl-1H-pyrazolo[4,3-c]pyridin-3-yl}-2-[(1S)-1-(4-fluorophenyl)ethoxy]phenyl]-1,1-difluoromethanesulfonamide]	< 10	< 1000	< 1000	< 1000
